Results reported in PubChem BioAssay AID1963959 (Molecular Pharmacology Branch, DTP, NCI, 2024).
“And” between values parts separate entries of the source, which are not always exact repeats. Identical values can stand only once.

Test system: T-47D spheroids with HUVEC/MSC, viability
Test: Anticancer human tumor T-47D cell line growth inhibition [PI3K];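 also: spheroids exposed to agents for seven days before reading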;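 as to viability, T/C: percent of DMSO vehicle control luminescence so 100% = untreated growth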
Settings: for viability, T/C: stronger effect = lower value
Procedure, shortened: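 Combination activity was assessed by viability in multicellular tumor spheroids carrying HUVEC and MSC components. Agents were tested with PI3K inhibitors from a Cmax-based top dose (or 10 microM) downward in half-log increments.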

[1] = curve of first compound, second compound 0.0316 µM
[2] = curve of first compound, second compound 0.1 µM
[3] = curve of first compound, second compound 0.316 µM
[4] = curve of first compound, second compound 1 µM
[5] = curve of first compound, second compound 3.16 µM
[6] = curve of first compound, second compound 10 µM
[7] = second compound 0.0316 µM, first compound 0.0316 µM
[8] = second compound 0.0316 µM, first compound 0.1 µM
[9] = second compound 0.0316 µM, first compound 0.316 µM
[10] = second compound 0.0316 µM, first compound 1 µM
[11] = second compound 0.0316 µM, first compound 3.16 µM
[12] = second compound 0.0316 µM, first compound 10 µM
[13] = second compound 0.1 µM, first compound 0.0316 µM
[14] = second compound 0.1 µM, first compound 0.1 µM
[15] = second compound 0.1 µM, first compound 0.316 µM
[16] = second compound 0.1 µM, first compound 1 µM
[17] = second compound 0.1 µM, first compound 3.16 µM
[18] = second compound 0.1 µM, first compound 10 µM
[19] = second compound 0.316 µM, first compound 0.0316 µM
[20] = second compound 0.316 µM, first compound 0.1 µM
[21] = second compound 0.316 µM, first compound 0.316 µM
[22] = second compound 0.316 µM, first compound 1 µM
[23] = second compound 0.316 µM, first compound 3.16 µM
[24] = second compound 0.316 µM, first compound 10 µM
[25] = second compound 1 µM, first compound 0.0316 µM
[26] = second compound 1 µM, first compound 0.1 µM
[27] = second compound 1 µM, first compound 0.316 µM
[28] = second compound 1 µM, first compound 1 µM
[29] = second compound 1 µM, first compound 3.16 µM
[30] = second compound 1 µM, first compound 10 µM
[31] = second compound 3.16 µM, first compound 0.0316 µM
[32] = second compound 3.16 µM, first compound 0.1 µM
[33] = second compound 3.16 µM, first compound 0.316 µM
[34] = second compound 3.16 µM, first compound 1 µM
[35] = second compound 3.16 µM, first compound 3.16 µM
[36] = second compound 3.16 µM, first compound 10 µM
[37] = second compound 10 µM, first compound 0.0316 µM
[38] = second compound 10 µM, first compound 0.1 µM
[39] = second compound 10 µM, first compound 0.316 µM
[40] = second compound 10 µM, first compound 1 µM
[41] = second compound 10 µM, first compound 3.16 µM
[42] = second compound 10 µM, first compound 10 µM

SMILES: Cn1cnc2c(F)c(Nc3ccc(Br)cc3Cl)c(C(=O)NOCCO)cc21 + CC(Nc1ccc2c(c1)OCCn1cc(N3C(=O)OCC3C(F)F)nc1-2)C(N)=O
- IC50 (curve of first compound, second compound 0.00316 µM): > 3 µM
- IC50 (curve of first compound, second compound 0.01 µM): > 3 µM
- IC50 [1]: > 3 µM
- IC50 [2]: > 3 µM
- IC50 [3]: > 3 µM
- IC50 [4]: 0.294 µM
- viability, T/C (second compound 0.00316 µM, first compound 0.00949 µM): 105%
- viability, T/C (second compound 0.00316 µM, first compound 0.03 µM): 84.7%
- viability, T/C (second compound 0.00316 µM, first compound 0.0949 µM): 99.8%
- viability, T/C (second compound 0.00316 µM, first compound 0.3 µM): 91.8%
- viability, T/C (second compound 0.00316 µM, first compound 0.949 µM): 86.1%
- viability, T/C (second compound 0.00316 µM, first compound 3 µM): 79.2%
- viability, T/C (second compound 0.01 µM, first compound 0.00949 µM): 97.5%
- viability, T/C (second compound 0.01 µM, first compound 0.03 µM): 80.4%
- viability, T/C (second compound 0.01 µM, first compound 0.0949 µM): 96.1%
- viability, T/C (second compound 0.01 µM, first compound 0.3 µM): 98.8%
- viability, T/C (second compound 0.01 µM, first compound 0.949 µM): 82.3%
- viability, T/C (second compound 0.01 µM, first compound 3 µM): 88.5%
- viability, T/C (second compound 0.0316 µM, first compound 0.00949 µM): 95.5%
- viability, T/C (second compound 0.0316 µM, first compound 0.03 µM): 80.5%
- viability, T/C (second compound 0.0316 µM, first compound 0.0949 µM): 101%
- viability, T/C (second compound 0.0316 µM, first compound 0.3 µM): 96.6%
- viability, T/C (second compound 0.0316 µM, first compound 0.949 µM): 97.8%
- viability, T/C (second compound 0.0316 µM, first compound 3 µM): 86.4%
- viability, T/C (second compound 0.1 µM, first compound 0.00949 µM): 85.6%
- viability, T/C (second compound 0.1 µM, first compound 0.03 µM): 86.1%
- viability, T/C (second compound 0.1 µM, first compound 0.0949 µM): 83.5%
- viability, T/C (second compound 0.1 µM, first compound 0.3 µM): 90.2%
- viability, T/C (second compound 0.1 µM, first compound 0.949 µM): 86.5%
- viability, T/C (second compound 0.1 µM, first compound 3 µM): 83.8%
- viability, T/C (second compound 0.316 µM, first compound 0.00949 µM): 71.3%
- viability, T/C (second compound 0.316 µM, first compound 0.03 µM): 75.3%
- viability, T/C (second compound 0.316 µM, first compound 0.0949 µM): 70.3%
- viability, T/C (second compound 0.316 µM, first compound 0.3 µM): 66.5%
- viability, T/C (second compound 0.316 µM, first compound 0.949 µM): 71.8%
- viability, T/C (second compound 0.316 µM, first compound 3 µM): 61.1%
- viability, T/C (second compound 1 µM, first compound 0.00949 µM): 54%
- viability, T/C (second compound 1 µM, first compound 0.03 µM): 56.8%
- viability, T/C (second compound 1 µM, first compound 0.0949 µM): 59.2%
- viability, T/C (second compound 1 µM, first compound 0.3 µM): 49.7%
- viability, T/C (second compound 1 µM, first compound 0.949 µM): 47.8%
- viability, T/C (second compound 1 µM, first compound 3 µM): 52.2%

SMILES: C=CC(=O)N1CCN(c2nc(=O)n(-c3c(C)ccnc3C(C)C)c3nc(-c4c(O)cccc4F)c(F)cc23)C(C)C1 (stereo not drawn)
- viability, T/C (compound 0.0316 µM): 94.8% (2×) and 125% and 115%
- viability, T/C (compound 0.1 µM): 96.8% [middle of 4 runs]
- viability, T/C (compound 1 µM): 98.7% and 126% (2×) and 94.5%
- IC50 (curve of compound): > 10 µM

SMILES: CC1(C)CCC(CN2CCN(c3ccc(C(=O)NS(=O)(=O)c4ccc(NCC5CCOCC5)c([N+](=O)[O-])c4)c(Oc4cnc5[nH]ccc5c4)c3)CC2)=C(c2ccc(Cl)cc2)C1 + CC(Nc1ncnc2nc[nH]c12)c1cc2cccc(Cl)c2c(=O)n1-c1ccccc1
- IC50 [1]: > 10 µM
- IC50 [2]: > 10 µM
- IC50 [3]: > 10 µM
- IC50 [4]: > 10 µM
- IC50 [5]: > 10 µM
- IC50 [6]: > 10 µM
- viability, T/C [7]: 120%
- viability, T/C [8]: 75.2%
- viability, T/C [9]: 85.7%
- viability, T/C [10]: 80.9%
- viability, T/C [11]: 81%
- viability, T/C [12]: 79.5%
- viability, T/C [13]: 110%
- viability, T/C [14]: 96%
- viability, T/C [15]: 99.5%
- viability, T/C [16]: 83.7%
- viability, T/C [17]: 89.6%
- viability, T/C [18]: 83.6%
- viability, T/C [19]: 88.5%
- viability, T/C [20]: 101%
- viability, T/C [21]: 86%
- viability, T/C [22]: 89.7%
- viability, T/C [23]: 85.3%
- viability, T/C [24]: 81%
- viability, T/C [25]: 96.9%
- viability, T/C [26]: 93.4%
- viability, T/C [27]: 91%
- viability, T/C [28]: 80.3%
- viability, T/C [29]: 77.1%
- viability, T/C [30]: 79.2%
- viability, T/C [31]: 91.6%
- viability, T/C [32]: 88.9%
- viability, T/C [33]: 97.3%
- viability, T/C [34]: 95.5%
- viability, T/C [35]: 87.3%
- viability, T/C [36]: 66.8%
- viability, T/C [37]: 96.5%
- viability, T/C [38]: 94.4%
- viability, T/C [39]: 88.8%
- viability, T/C [40]: 89%
- viability, T/C [41]: 86.1%
- viability, T/C [42]: 79.8%

SMILES: CNC(=O)c1ccc(N2C(=S)N(c3ccc(C#N)c(C(F)(F)F)c3)C(=O)C2(C)C)cc1F + Cc1nc(NC(=O)N2CCCC2C(N)=O)sc1-c1ccnc(C(C)(C)C(F)(F)F)c1
- IC50 [1]: > 10 µM
- IC50 [2]: > 10 µM
- IC50 [3]: > 10 µM
- IC50 [4]: > 10 µM
- IC50 [5]: > 10 µM
- IC50 [6]: < 0.0316 µM
- viability, T/C [7]: 113%
- viability, T/C [8]: 82%
- viability, T/C [9]: 97%
- viability, T/C [10]: 87.1%
- viability, T/C [11]: 91.1%
- viability, T/C [12]: 87.9%
- viability, T/C [13]: 111%
- viability, T/C [14]: 96.5%
- viability, T/C [15]: 93.2%
- viability, T/C [16]: 88.4%
- viability, T/C [17]: 97.7%
- viability, T/C [18]: 84.9%
- viability, T/C [19]: 91.8%
- viability, T/C [20]: 85%
- viability, T/C [21]: 94.3%
- viability, T/C [22]: 85.9%
- viability, T/C [23]: 101%
- viability, T/C [24]: 88.5%
- viability, T/C [25]: 82.9%
- viability, T/C [26]: 96.4%
- viability, T/C [27]: 85.1%
- viability, T/C [28]: 78.3%
- viability, T/C [29]: 91.9%
- viability, T/C [30]: 66.8%
- viability, T/C [31]: 72%
- viability, T/C [32]: 76%
- viability, T/C [33]: 72.2%
- viability, T/C [34]: 69.5%
- viability, T/C [35]: 62.3%
- viability, T/C [36]: 58%
- viability, T/C [37]: 43.2%
- viability, T/C [38]: 41.2%
- viability, T/C [39]: 40.5%
- viability, T/C [40]: 44.5%
- viability, T/C [41]: 33.7%
- viability, T/C [42]: 30.4%

SMILES: CC(Nc1ncnc2nc[nH]c12)c1cc2cccc(Cl)c2c(=O)n1-c1ccccc1 (stereo not drawn)
- viability, T/C (compound 0.0316 µM): 96.2% [middle of 8 runs]
- viability, T/C (compound 0.316 µM): 96.2% [middle of 8 runs]
- IC50 (compound alone, run of 04/25/2023): > 10 µM
